Measured values reported in ChEMBL document CHEMBL3751812, “Novel skeleton compound Allomyrinanoid A and two purine alkaloids from the adult of Allomyrina dichotoma L” (2016).

Columns and labels:
Type in all cases: functional
Conditions in all cases: read-out: DIZ
[1] = system: Bacillus subtilis; assay: Antibacterial activity against Bacillus subtilis assessed as growth inhibition at 10 mg/ml by drug sensitive assay
[2] = system: Bacillus subtilis; assay: Antibacterial activity against Bacillus subtilis assessed as growth inhibition at 1 mg/ml by drug sensitive assay
[3] = system: Staphylococcus aureus; assay: Antibacterial activity against Staphylococcus aureus assessed as growth inhibition at 1 mg/ml by drug sensitive assay
[4] = system: Staphylococcus aureus; assay: Antibacterial activity against Staphylococcus aureus assessed as growth inhibition at 10 mg/ml by drug sensitive assay
[5] = system: Escherichia coli; assay: Antibacterial activity against Escherichia coli assessed as growth inhibition at 10 mg/ml by drug sensitive assay

## CNC(=O)[C@H]1CCC[C@@H](C(=O)O)[C@@H](C)[C@H](C)[C@H](C)[C@@H]1C
[1]
  zone of inhibition at 10000 µg/mL: 4.5 mm

## CC1(C)S[C@@H]2[C@H](NC(=O)Cc3ccccc3)C(=O)N2[C@H]1C(=O)O [PENICILLIN G]
[2]
  zone of inhibition at 1000 µg/mL: 10 mm
[1]
  zone of inhibition at 10000 µg/mL: 18 mm
[3]
  zone of inhibition at 1000 µg/mL: 9 mm
[4]
  zone of inhibition at 10000 µg/mL: 17 mm

## Nc1ncnc2c1ncn2/C=N\O (stereo in doubt; 2)
[5]
  zone of inhibition at 10000 µg/mL: 5.5 mm
